The text below walks through data of article PMC6364417, “Kinase inhibitor library screening identifies synergistic drug combinations effective in sensitive and resistant melanoma cells” (Journal of Experimental & Clinical Cancer Research : CR, 2019).

Holding throughout (assay): Kinase inhibitor library screening, PrestoBlue cell viability, 1 or 10 μM, 72 h
Data set [1] relates to 501Mel-GP cells (Dabrafenib-resistant). The following applies: 501Mel GP, 72 h, in %.
The test system of data set [2] is 501Mel-XP cells (Vemurafenib-resistant). The following applies: 501Mel XP, 72 h, in %.
Data set [3] deals with A375-XP cells (Vemurafenib-resistant). Particulars: A375 XP, 72 h; for cell viability, A375 XP, 1μΜ / cell viability, A375 XP, 10μΜ: in %.
The test system of data set [4] is A375 cells (parental). The following applies: A375 Parental, 72 h; for cell viability, A375 Parental, 1μΜ / cell viability, A375 Parental, 10μΜ: in %.
Data set [5] deals with IGR37 cells (parental). The following applies: IGR37 Parental, 72 h, in %.
In data set [6] the test system is 501Mel cells (parental). The following applies: 501Mel Parental, 72 h, in %. The essentials: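 Values are % viability versus untreated wells, measured by PrestoBlue after a 72 h drug exposure. Screens covered the parental line plus sublines rendered resistant to Vemurafenib or Dabrafenib, each analysed in at least duplicate.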
For data set [7], the system named is A375-GP cells (Dabrafenib-resistant). Particulars: A375 GP, 72 h; for cell viability, A375 GP, 1μΜ / cell viability, A375 GP, 10μΜ: in %.
Data set [8] deals with IGR37-XP cells (Vemurafenib-resistant). The following applies: IGR37 XP, 72 h.
Data set [9] concerns IGR37-GP cells (Dabrafenib-resistant). The following applies: IGR37 GP, 72 h.

On to `CCn1nnc2c(N3CCOCC3)nc(-c3ccc(NC(=O)Nc4ccc(C(=O)N5CCN(C)CC5)cc4)cc3)nc21` [PKI-402], for which the “Cell viability in kinase inhibitor library screening, 501Mel GP, 1μΜ” value in data set [1] (1μΜ) is on record as 21.4. Moreover, the “Cell viability in kinase inhibitor library screening, 501Mel GP, 10μΜ” value in data set [1] (10μΜ) stood at 0.548. In addition, the “Cell viability in kinase inhibitor library screening, 501Mel XP, 1μΜ” value in data set [2] (1μΜ) was 15.3. Moreover, in data set [2] (10μΜ), the “Cell viability in kinase inhibitor library screening, 501Mel XP, 10μΜ” value is on record as -0.1. Also, the “Cell viability in kinase inhibitor library screening, A375 XP, 1μΜ” value in data set [3] (1μΜ) was found to be 20.0. Also, in [3] (10μΜ), the “Cell viability in kinase inhibitor library screening, A375 XP, 10μΜ” value was 8.5. Besides, the “Cell viability in kinase inhibitor library screening, A375 Parental, 10μΜ” value in data set [4] (10μΜ) was 12.7. The “Cell viability in kinase inhibitor library screening, A375 Parental, 1μΜ” value in data set [4] (1μΜ) turned out to be 21.3. In addition, in [5] (1μΜ), the “Cell viability in kinase inhibitor library screening, IGR37 Parental, 1μΜ” value turned out to be 35.8. In addition, the “Cell viability in kinase inhibitor library screening, IGR37 Parental, 10μΜ” value in [5] (10μΜ) worked out at 2.7. Also, the “Cell viability in kinase inhibitor library screening, 501Mel Parental, 1μΜ” value in data set [6] (1μΜ) is on record as 15.4. Moreover, the “Cell viability in kinase inhibitor library screening, 501Mel Parental, 10μΜ” value in data set [6] (10μΜ) is recorded as 0.476. The “Cell viability in kinase inhibitor library screening, A375 GP, 1μΜ” value in data set [7] (1μΜ) is 23.7. In data set [7] (10μΜ), the “Cell viability in kinase inhibitor library screening, A375 GP, 10μΜ” value is on record as 9.7. The molecule further had a Cell viability in kinase inhibitor library screening, IGR37 XP, 10μΜ in data set [8] (10μΜ) of 1.9%. Also, in data set [8] (1μΜ, in %), the “Cell viability in kinase inhibitor library screening, IGR37 XP, 1μΜ” value amounted to 25.5. The molecule further yielded a Cell viability in kinase inhibitor library screening, IGR37 GP, 10μΜ in [9] (10μΜ) of 3.4%. Further, the “Cell viability in kinase inhibitor library screening, IGR37 GP, 1μΜ” value in [9] (1μΜ, in %) came to 66.1.
For the molecule `CN1CCN(c2ccc3nc(-c4c(N)c5c(F)cccc5[nH]c4=O)[nH]c3c2)CC1` [Dovitinib (TKI-258)], the “cell viability, 501Mel GP, 1μΜ” value in data set [1] (1μΜ) was 95.0. Also, the “cell viability, 501Mel GP, 10μΜ” value in data set [1] (10μΜ) is on record as -0.1. Besides, the “cell viability, 501Mel XP, 1μΜ” value in data set [2] (1μΜ) is reported as 87.1. In addition, in [2] (10μΜ), the “cell viability, 501Mel XP, 10μΜ” value is on record as -0.0348. For the same molecule, in data set [3] (1μΜ), the “cell viability, A375 XP, 1μΜ” value is 97.7. In addition, in data set [3] (10μΜ), the “cell viability, A375 XP, 10μΜ” value turned out to be 58.3. The “cell viability, A375 Parental, 1μΜ” value in data set [4] (1μΜ) was 102.8. In addition, the “cell viability, A375 Parental, 10μΜ” value in data set [4] (10μΜ) was found to be 47.2. Moreover, in data set [5] (1μΜ), the “cell viability, IGR37 Parental, 1μΜ” value is 96.1. In addition, the “cell viability, IGR37 Parental, 10μΜ” value in data set [5] (10μΜ) stood at 64.0. Further, the “cell viability, 501Mel Parental, 1μΜ” value in [6] (1μΜ) is listed as 103.1. In [6] (10μΜ), the “cell viability, 501Mel Parental, 10μΜ” value amounted to 0.6. Further, in data set [7] (1μΜ), the “cell viability, A375 GP, 1μΜ” value is on record as 93.5. The “cell viability, A375 GP, 10μΜ” value in [7] (10μΜ) is recorded as 42.2. The cell viability, IGR37 XP, 10μΜ in [8] (10μΜ) came out at 22.5%. In [8] (1μΜ, in %), the “cell viability, IGR37 XP, 1μΜ” value worked out at 102.6. In addition, the cell viability, IGR37 GP, 10μΜ in data set [9] (10μΜ) stood at 42.8%. Further, in [9] (1μΜ, in %), the “cell viability, IGR37 GP, 1μΜ” value was 99.9.
Regarding `O=c1cc(N2CCOCC2)oc2c(-c3cccc4c3sc3ccccc34)cccc12` [NU7441(KU-57788)], the “cell viability, 501Mel GP, 1μΜ” value in [1] (1μΜ) is 93.7. In addition, the “cell viability, 501Mel GP, 10μΜ” value in [1] (10μΜ) is listed as 32.9. For the same molecule, the “cell viability, 501Mel XP, 10μΜ” value in [2] (10μΜ) is 10.9. In addition, the “cell viability, A375 XP, 1μΜ” value in data set [3] (1μΜ) is given as 98.6. In data set [3] (10μΜ), the “cell viability, A375 XP, 10μΜ” value is recorded as 55.7. The “cell viability, A375 Parental, 1μΜ” value in data set [4] (1μΜ) is listed as 98.8. The “cell viability, A375 Parental, 10μΜ” value in data set [4] (10μΜ) is listed as 52.7. Besides, the “cell viability, IGR37 Parental, 1μΜ” value in data set [5] (1μΜ) amounted to 96.8. Also, the “cell viability, IGR37 Parental, 10μΜ” value in data set [5] (10μΜ) is on record as 98.9. For the same molecule, the “cell viability, 501Mel Parental, 10μΜ” value in data set [6] (10μΜ) worked out at 61.0. The “cell viability, A375 GP, 1μΜ” value in [7] (1μΜ) is 92.7. Further, the “cell viability, A375 GP, 10μΜ” value in data set [7] (10μΜ) came out at 47.4. The cell viability, IGR37 XP, 10μΜ in data set [8] (10μΜ) stood at 20.1%. Also, in [8] (1μΜ, in %), the “cell viability, IGR37 XP, 1μΜ” value turned out to be 99.7. For the same molecule, the cell viability, IGR37 GP, 10μΜ in [9] (10μΜ) was found to be 49.3%. The “cell viability, IGR37 GP, 1μΜ” value in data set [9] (1μΜ, in %) turned out to be 92.2.
